Target: T1, chimeric human H3 receptor (Homo sapiens, UniProt Q9Y5N1)
T1 construct: rat Galpha-i2 (Gnai2, rat); made in house; host or cells: Sf9 insect cells (baculovirus); P2 membranes
Experiment: Chimeric human H3 receptor screening GTP binding assay (inhibition of histamine-stimulated GTP-gamma35S binding, Example 8)
Type: biochemical
Conditions: 1 h; assay described in Example 8; symbol "!" in column headed Ki; read-out: Ki ("!": percent inhibition of agonist-induced GTP-gammaS binding to H3)
In short: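 Sf9 membranes co-expressing chimeric human H3 receptor and heterotrimeric G-protein (35 μg protein) incubated 60 min at room temperature with 4 μM compound, 1 μM histamine and 125 pM GTP-gamma35S in pH 7.4 buffer with 10 μM GDP. Filter-bound radioactivity, nonspecific (10 μM GTP-gammaS) subtracted, reported as % inhibition of histamine signal.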

T1 sequence (Q9Y5N1 with tags, fused parts or gaps): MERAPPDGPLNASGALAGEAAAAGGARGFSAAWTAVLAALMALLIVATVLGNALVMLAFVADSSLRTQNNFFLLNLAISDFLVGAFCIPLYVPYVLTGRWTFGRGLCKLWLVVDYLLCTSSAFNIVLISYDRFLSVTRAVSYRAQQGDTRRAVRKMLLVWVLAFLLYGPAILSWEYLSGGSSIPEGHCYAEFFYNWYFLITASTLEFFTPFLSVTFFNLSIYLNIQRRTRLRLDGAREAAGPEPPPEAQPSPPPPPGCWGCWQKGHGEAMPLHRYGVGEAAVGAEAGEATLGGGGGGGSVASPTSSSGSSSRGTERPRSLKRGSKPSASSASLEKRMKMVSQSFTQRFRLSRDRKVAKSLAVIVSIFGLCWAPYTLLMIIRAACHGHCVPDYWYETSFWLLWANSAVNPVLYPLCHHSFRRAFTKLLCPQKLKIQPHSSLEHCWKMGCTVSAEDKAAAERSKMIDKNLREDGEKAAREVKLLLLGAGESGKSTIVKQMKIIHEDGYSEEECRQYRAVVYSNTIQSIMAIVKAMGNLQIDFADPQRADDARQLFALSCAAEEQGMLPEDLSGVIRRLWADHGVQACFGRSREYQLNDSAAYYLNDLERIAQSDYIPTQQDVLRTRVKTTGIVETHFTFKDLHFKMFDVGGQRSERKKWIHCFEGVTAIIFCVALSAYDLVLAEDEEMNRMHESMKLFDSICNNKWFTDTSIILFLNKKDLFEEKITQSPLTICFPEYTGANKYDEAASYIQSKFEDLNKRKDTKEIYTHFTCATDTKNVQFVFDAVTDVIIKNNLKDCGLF

Row | inhibition at 4 µM | Structure (SMILES)
1 | ≥ 90% | COc1ncc(Cl)cc1C(=O)N1CCc2cnc(N3CCN(C4CCC4)CC3)nc2CC1 [Compound 544, 7-[(5-chloro-2-methoxypyridin-3-yl)carbonyl]-2-(4-cyclobutylpiperazin-1-yl)-6,7,8,9-tetrahydro-5H-pyrimido[4,5-d]azepine]
2 | ≥ 90% | O=C(c1ccccc1Oc1ccc(Cl)cc1)N1CCc2cnc(N3CCN(C4CCC4)CC3)nc2CC1 [Compound 419, 7-[2-(4-chlorophenoxy)benzoyl]-2-(4-cyclobutylpiperazin-1-yl)-6,7,8,9-tetrahydro-5H-pyrimido[4,5-d]azepine]
3 | ≥ 90% | O=C(c1cc2ccccc2s1)N1CCc2cnc(N3CCN(C4CCC4)CC3)nc2CC1 [Compound 455, 7-(1-benzothien-2-ylcarbonyl)-2-(4-cyclobutylpiperazin-1-yl)-6,7,8,9-tetrahydro-5H-pyrimido[4,5-d]azepine]
4 | ≥ 90% | Cc1cccc(C(=O)N2CCc3cnc(N4CCN(C5CCC5)CC4)nc3CC2)c1C [Compound 403, 2-(4-cyclobutylpiperazin-1-yl)-7-(2,3-dimethylbenzoyl)-6,7,8,9-tetrahydro-5H-pyrimido[4,5-d]azepine]
5 | ≥ 90% | Nc1cc(Cl)ccc1C(=O)N1CCc2cnc(N3CCN(C4CCC4)CC3)nc2CC1 [Compound 540, 5-chloro-2-{[2-(4-cyclobutylpiperazin-1-yl)-5,6,8,9-tetrahydro-7H-pyrimido[4,5-d]azepin-7-yl]carbonyl}aniline]
6 | ≥ 90% | O=C(c1nsc(Cl)c1Cl)N1CCc2cnc(N3CCN(C4CCC4)CC3)nc2CC1 [Compound 526, 2-(4-cyclobutylpiperazin-1-yl)-7-[(4,5-dichloroisothiazol-3-yl)carbonyl]-6,7,8,9-tetrahydro-5H-pyrimido[4,5-d]azepine]

Same assay, conditions: 1 h; assay of Example 8; symbol "!" in column headed Ki; read-out: percent inhibition of agonist-induced GTP-gammaS binding to H3

Row | Structure (SMILES) | inhibition at 4 µM
7 | CC(Oc1ccc(OC(F)(F)F)cc1)C(=O)N1CCc2cnc(N3CCN(C4CCC4)CC3)nc2CC1 (centres unmarked) [Compound 343, 2-(4-cyclobutylpiperazin-1-yl)-7-{2-[4-(trifluoromethoxy)phenoxy]propanoyl}-6,7,8,9-tetrahydro-5H-pyrimido[4,5-d]azepine] | ≥ 90%
8 | Cc1cccc(CN2CCc3cnc(N4CCN(C5CCC5)CC4)nc3CC2)c1 [Compound 233, 2-(4-cyclobutylpiperazin-1-yl)-7-(3-methylbenzyl)-6,7,8,9-tetrahydro-5H-pyrimido[4,5-d]azepine] | ≥ 90%
9 | Cc1ccc(C)c(OCC(=O)N2CCc3cnc(N4CCN(C5CCC5)CC4)nc3CC2)c1 [Compound 334, 2-(4-cyclobutylpiperazin-1-yl)-7-[(2,5-dimethylphenoxy)acetyl]-6,7,8,9-tetrahydro-5H-pyrimido[4,5-d]azepine] | ≥ 90%
10 | N#Cc1ccc(C(=O)N2CCc3cnc(N4CCN(C5CCC5)CC4)nc3CC2)cc1 [Compound 268, 4-{[2-(4-cyclobutylpiperazin-1-yl)-5,6,8,9-tetrahydro-7H-pyrimido[4,5-d]azepin-7-yl]carbonyl}benzonitrile] | ≥ 90%
11 | COc1ccc(CC(=O)N2CCc3cnc(N4CCN(C5CCC5)CC4)nc3CC2)c(OC)c1 [Compound 310, 2-(4-cyclobutylpiperazin-1-yl)-7-[(2,4-dimethoxyphenyl)acetyl]-6,7,8,9-tetrahydro-5H-pyrimido[4,5-d]azepine] | ≥ 90%

Second part, the compound after the results:

Row | inhibition at 4 µM | Structure (SMILES)
12 | ≥ 90% | CCCc1ccc(C(=O)N2CCc3cnc(N4CCN(C5CCC5)CC4)nc3CC2)cc1 [Compound 362, 2-(4-cyclobutylpiperazin-1-yl)-7-(4-propylbenzoyl)-6,7,8,9-tetrahydro-5H-pyrimido[4,5-d]azepine]
13 | ≥ 90% | CCCCc1ccc(C(=O)N2CCc3cnc(N4CCN(C5CCC5)CC4)nc3CC2)cc1 [Compound 363, 7-(4-butylbenzoyl)-2-(4-cyclobutylpiperazin-1-yl)-6,7,8,9-tetrahydro-5H-pyrimido[4,5-d]azepine]
14 | ≥ 90% | O=C(c1ccc(-c2ccccc2)cc1)N1CCc2cnc(N3CCN(C4CCC4)CC3)nc2CC1 [Compound 365]
15 | ≥ 90% | CC(C(=O)N1CCc2cnc(N3CCN(C4CCC4)CC3)nc2CC1)(c1ccccc1)c1ccccc1 [Compound 357, 2-(4-cyclobutylpiperazin-1-yl)-7-(2,2-diphenylpropanoyl)-6,7,8,9-tetrahydro-5H-pyrimido[4,5-d]azepine]
16 | ≥ 90% | Cc1ccccc1C(C(=O)N1CCc2cnc(N3CCN(C4CCC4)CC3)nc2CC1)C(C)C (centres unmarked) [Compound 351, 2-(4-cyclobutylpiperazin-1-yl)-7-[3-methyl-2-(2-methylphenyl)butanoyl]-6,7,8,9-tetrahydro-5H-pyrimido[4,5-d]azepine]

Same assay, conditions: symbol ! in Ki; test compound 4 μM, 1 μM histamine; read-out: percent inhibition of agonist-induced GTP-gammaS binding to H3

Row | inhibition at 4 µM | Structure (SMILES)
17 | ≥ 90% | CC(C)CCN1CCc2ncnc(N3CCN(C4CCC4)CC3)c2CC1 [Compound 161, 4-(4-cyclobutylpiperazin-1-yl)-7-(3-methylbutyl)-6,7,8,9-tetrahydro-5H-pyrimido[4,5-d]azepine]
18 | ≥ 90% | c1nc2c(c(N3CCN(C4CCC4)CC3)n1)CCN(Cc1ccc(N3CCCC3)cc1)CC2 [Compound 182, 4-(4-cyclobutylpiperazin-1-yl)-7-(4-pyrrolidin-1-ylbenzyl)-6,7,8,9-tetrahydro-5H-pyrimido[4,5-d]azepine]
19 | ≥ 90% | Fc1ccccc1CN1CCc2ncnc(N3CCN(C4CCC4)CC3)c2CC1 [Compound 145, 4-(4-cyclobutylpiperazin-1-yl)-7-(2-fluorobenzyl)-6,7,8,9-tetrahydro-5H-pyrimido[4,5-d]azepine]
20 | ≥ 90% | COc1ccccc1CN1CCc2ncnc(N3CCN(C4CCC4)CC3)c2CC1 [Compound 157, 4-(4-cyclobutylpiperazin-1-yl)-7-(2-methoxybenzyl)-6,7,8,9-tetrahydro-5H-pyrimido[4,5-d]azepine]
21 | ≥ 90% | CC(C)CC(=O)N1CCc2c(ncnc2N2CCN(C3CCC3)CC2)C1 [Compound 45, 4-(4-cyclobutylpiperazin-1-yl)-7-(3-methylbutanoyl)-5,6,7,8-tetrahydropyrido[3,4-d]pyrimidine]
22 | ≥ 90% | c1cc(N2CCCC2)ncc1CN1CCc2nc(N3CCN(C4CCC4)CC3)ncc2C1 [Compound 643, 2-(4-cyclobutylpiperazin-1-yl)-6-[(6-pyrrolidin-1-ylpyridin-3-yl)methyl]-5,6,7,8-tetrahydropyrido[4,3-d]pyrimidine]
23 | ≥ 90% | O=C(C1CC1)N1CCc2c(ncnc2N2CCN(C3CCC3)CC2)C1 [Compound 52, 4-(4-cyclobutylpiperazin-1-yl)-7-(cyclopropylcarbonyl)-5,6,7,8-tetrahydropyrido[3,4-d]pyrimidine]
24 | ≥ 90% | Cc1cccc(C(=O)N2CCc3c(ncnc3N3CCN(C4CCC4)CC3)C2)c1 [Compound 23, 4-(4-cyclobutylpiperazin-1-yl)-7-(3-methylbenzoyl)-5,6,7,8-tetrahydropyrido[3,4-d]pyrimidine]
25 | ≥ 90% | CCC(C)C(C)N1CCc2c(ncnc2N2CCN(C3CCC3)CC2)C1 (centres unmarked) [Compound 122, 4-(4-cyclobutylpiperazin-1-yl)-7-(1,2-dimethylbutyl)-5,6,7,8-tetrahydropyrido[3,4-d]pyrimidine]
26 | ≥ 90% | COC(=O)c1ccc(CN2CCc3c(ncnc3N3CCN(C4CCC4)CC3)C2)cc1 [Compound 139, methyl 4-{[4-(4-cyclobutylpiperazin-1-yl)-5,8-dihydropyrido[3,4-d]pyrimidin-7(6H)-yl]methyl}benzoate]

Source: patent publication US20080051387A1, “TETRAHYDROPYRIDO[3,4-D]PYRIMIDINES AND RELATED ANALOGUES” (priority 2006, published 2008)
